Data: patent publication US20260209223A1, “FGFR3 INHIBITOR COMPOUNDS” (TYRA BIOSCIENCES, INC., priority 2022, published 2026)

Tests used:
Ba/F3 BCR-FGFR1 = biological target: T1, Ba/F3 BCR-FGFR1 (Homo sapiens, UniProt P11362); assay: Ba/F3 cell viability assay (CellTiter-Glo 2.0); assay type: cell-based; conditions: Ba/F3 cell data, BCR-FGFR1 fusion, 48 hours
T1 construct: BCR (fusion partner); host or cells: Ba/F3; the other entry of the earlier key: BCR (P11274, Breakpoint cluster region protein)
T1 sequence (P11362 478-767 limits assumed): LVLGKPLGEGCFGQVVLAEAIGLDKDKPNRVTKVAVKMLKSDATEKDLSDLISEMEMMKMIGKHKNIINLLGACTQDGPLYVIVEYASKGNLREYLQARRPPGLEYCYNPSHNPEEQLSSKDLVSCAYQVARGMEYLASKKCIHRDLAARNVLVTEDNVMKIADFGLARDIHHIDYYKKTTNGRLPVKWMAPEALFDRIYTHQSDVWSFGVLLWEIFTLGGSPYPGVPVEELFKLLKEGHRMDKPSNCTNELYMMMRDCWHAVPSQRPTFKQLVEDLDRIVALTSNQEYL

Ba/F3 BCR-FGFR2 = biological target: T2, Ba/F3 BCR-FGFR2 (Homo sapiens, UniProt P21802); assay: Ba/F3 cell viability assay (CellTiter-Glo 2.0); assay type: cell-based; conditions: Ba/F3 cell data, BCR-FGFR2 fusion, 48 hours
T2 construct: BCR (fusion partner); host or cells: Ba/F3; the other entry of the earlier key: BCR (P11274, Breakpoint cluster region protein)
T2 sequence (P21802 481-770 limits assumed): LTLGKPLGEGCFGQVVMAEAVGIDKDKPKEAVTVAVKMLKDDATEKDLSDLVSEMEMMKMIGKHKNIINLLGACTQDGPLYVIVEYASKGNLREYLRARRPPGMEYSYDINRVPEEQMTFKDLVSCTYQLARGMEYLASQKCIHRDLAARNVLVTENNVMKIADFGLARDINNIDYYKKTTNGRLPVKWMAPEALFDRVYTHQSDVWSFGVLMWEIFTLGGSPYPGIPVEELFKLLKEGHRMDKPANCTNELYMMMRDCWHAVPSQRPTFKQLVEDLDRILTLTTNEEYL

FGFR3 = biological target: T3, FGFR3 (Homo sapiens, UniProt P22607); assay: Kinase binding assay (Kd), kinase-tagged T7 phage, affinity beads, qPCR; conditions: in vitro binding assay, 11-point 3-fold dilution series
T3 construct: made in house; host or cells: E. coli (BL21-derived) infected with T7 phage
T3 sequence (P22607 23-806): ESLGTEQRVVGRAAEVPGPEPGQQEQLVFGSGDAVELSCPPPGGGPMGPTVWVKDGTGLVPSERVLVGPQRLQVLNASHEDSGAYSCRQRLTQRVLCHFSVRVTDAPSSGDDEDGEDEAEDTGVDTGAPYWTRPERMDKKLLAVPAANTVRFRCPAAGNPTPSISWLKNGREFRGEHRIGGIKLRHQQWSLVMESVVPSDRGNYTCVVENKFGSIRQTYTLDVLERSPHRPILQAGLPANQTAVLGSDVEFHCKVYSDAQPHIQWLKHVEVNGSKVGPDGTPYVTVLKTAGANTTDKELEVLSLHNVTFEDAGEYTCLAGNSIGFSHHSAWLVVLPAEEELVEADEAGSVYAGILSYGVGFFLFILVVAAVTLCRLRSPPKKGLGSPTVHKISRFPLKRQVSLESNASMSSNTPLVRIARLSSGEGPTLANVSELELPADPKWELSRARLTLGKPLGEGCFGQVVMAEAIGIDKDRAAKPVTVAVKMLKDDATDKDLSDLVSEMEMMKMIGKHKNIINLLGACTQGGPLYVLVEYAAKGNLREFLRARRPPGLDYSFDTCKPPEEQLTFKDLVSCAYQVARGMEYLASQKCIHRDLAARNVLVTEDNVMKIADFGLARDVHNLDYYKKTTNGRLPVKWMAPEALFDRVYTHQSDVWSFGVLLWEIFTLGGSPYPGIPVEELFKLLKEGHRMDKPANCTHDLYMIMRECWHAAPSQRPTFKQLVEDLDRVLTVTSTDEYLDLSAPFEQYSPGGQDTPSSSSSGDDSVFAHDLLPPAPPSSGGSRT
Experimental: (§1) Kinase-tagged T7 phage strains were prepared in an E. coli host derived from the BL21 strain. E. coli were grown to log-phase and infected with T7 phage and incubated with shaking at 32° C. until lysis. The lysates were centrifuged and filtered to remove cell debris. Streptavidin-coated magnetic beads were treated with biotinylated small molecule ligands for 30 minutes at room temperature to generate affinity resins for kinase assays. The liganded beads were blocked with excess biotin and washed with blocking buffer SeaBlock (Pierce), 1% BSA, 0.05% Tween 20, 1 mM DTT to remove unbound ligand and to reduce non-specific binding. Binding reactions were assembled by combining kinases, liganded affinity beads, and test compounds in 1× binding buffer (20% SeaBlock, 0.17×PBS, 0.05% Tween 20, 6 mM DTT).
(§2) Test compounds were prepared as 111× stocks in 100% DMSO. Kds were determined using an 11-point 3-fold compound dilution series with three DMSO control points. All compounds for Kd measurements are distributed by acoustic transfer (non-contact dispensing) in 100% DMSO. The compounds were then diluted directly into the assays such that the final concentration of DMSO was 0.9%. All reactions performed in polypropylene 384-well plate. Each was a final volume of 0.02 ml. The assay plates were incubated at room temperature with shaking for 1 hour and the affinity beads were washed with wash buffer (1×PBS, 0.05% Tween 20). The beads were then re-suspended in elution buffer (1×PBS, 0.05% Tween 20, 0.5 μM non-biotinylated affinity ligand) and incubated at room temperature with shaking for 30 minutes. The kinase concentration in the eluates was measured by qPCR.
(§3) Binding constants were calculated with a standard dose-response curve using the Hill equation: […]
(§4) The Hill Slope was set to −1. Curves were fitted using a non-linear least square fit with the Levenberg-Marquardt algorithm.

FGFR1 = biological target: T4, FGFR1 (Homo sapiens, UniProt P11362); assay: as above; conditions: in vitro binding assay, 11-point 3-fold dilution series
T4 construct: made in house; host or cells: E. coli (BL21-derived) infected with T7 phage
T4 sequence (P11362 22-822): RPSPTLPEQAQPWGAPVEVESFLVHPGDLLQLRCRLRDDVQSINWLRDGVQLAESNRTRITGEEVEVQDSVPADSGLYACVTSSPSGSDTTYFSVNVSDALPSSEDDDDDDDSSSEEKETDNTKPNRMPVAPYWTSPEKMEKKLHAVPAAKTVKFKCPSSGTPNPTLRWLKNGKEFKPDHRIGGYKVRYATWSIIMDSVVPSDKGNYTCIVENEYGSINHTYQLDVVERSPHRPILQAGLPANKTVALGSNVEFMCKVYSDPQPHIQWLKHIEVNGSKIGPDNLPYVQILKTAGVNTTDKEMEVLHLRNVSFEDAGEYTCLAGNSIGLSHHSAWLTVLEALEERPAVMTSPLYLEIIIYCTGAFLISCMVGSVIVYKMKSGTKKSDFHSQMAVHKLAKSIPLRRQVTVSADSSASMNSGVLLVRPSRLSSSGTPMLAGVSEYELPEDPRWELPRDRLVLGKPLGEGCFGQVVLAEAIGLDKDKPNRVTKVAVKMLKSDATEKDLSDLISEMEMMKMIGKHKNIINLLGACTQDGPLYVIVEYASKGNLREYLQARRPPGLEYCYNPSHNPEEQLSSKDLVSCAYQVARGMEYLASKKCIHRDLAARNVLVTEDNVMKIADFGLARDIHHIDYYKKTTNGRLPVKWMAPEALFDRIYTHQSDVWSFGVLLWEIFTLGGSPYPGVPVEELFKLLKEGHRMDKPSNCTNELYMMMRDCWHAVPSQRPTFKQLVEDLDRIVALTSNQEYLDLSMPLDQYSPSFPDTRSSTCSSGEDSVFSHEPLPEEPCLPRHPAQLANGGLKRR
Experimental: as §1, §2, §3, §4

Ba/F3 ETV5-FGFR4 = biological target: T5, Ba/F3 ETV5-FGFR4 (Homo sapiens, UniProt P22455); assay: Ba/F3 cell viability assay (CellTiter-Glo 2.0); assay type: cell-based; conditions: Ba/F3 cell data, ETV5-FGFR4 fusion, 48 hours
T5 construct: host or cells: Ba/F3; the other entry of the earlier key: ETV5 (P41161, ETS translocation variant 5)
T5 sequence (P22455 467-755 limits assumed): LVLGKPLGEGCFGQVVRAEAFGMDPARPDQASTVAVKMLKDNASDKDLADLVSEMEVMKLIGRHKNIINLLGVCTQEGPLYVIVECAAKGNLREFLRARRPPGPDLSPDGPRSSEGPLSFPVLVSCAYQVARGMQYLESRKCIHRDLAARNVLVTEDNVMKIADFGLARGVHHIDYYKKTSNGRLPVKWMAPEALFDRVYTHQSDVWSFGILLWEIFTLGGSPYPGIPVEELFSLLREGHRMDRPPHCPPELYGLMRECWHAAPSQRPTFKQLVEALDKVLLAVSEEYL
Excerpt: Experimental Purpose: Recombinant kinase fusions are transduced into parental Ba/F3, which becomes dependent upon this constitutive kinase activity for IL3-independent survival. Inhibition of kinase activity leads to cell death, which is monitored using CellTiter-Glo® 2.0 (Promega) which measures intracellular ATP concentration that in turn serves as a marker for viability. BCR-FGFR1 Ba/F3, BCR-FGFR2 and FGFR3-BAIAP2L1 Ba/F3 were obtained from Advanced Cellular Dynamics (Seattle, WA). ETV6-FGFR4 was obtained from Kyinno (Waltham, MA).
Cell Viability Assay Procedure: Cell Titer-Glo® 2.0 Luminescent cell viability assay reagent was purchased from Promega (Madison, WI). Ba/F3 cell lines were cultured in RPMI1640 media supplemented with 10% fetal bovine serum. Cultures were maintained at 37° C. in a humidified atmosphere of 5% CO2 and 95% air.
Cells were plated in 96-well clear bottom/white plates (Corning #3903) at 10,000 cells/well in 100 μl of media, incubated overnight. The next day, test compound DMSO stock solutions were made at 10 mM and 2 μM final concentration. Compounds were then added to cells in a 9-dose, 10-fold dilution series starting at 30 μM with an HP 300e Digital Dispenser (each dose was applied in triplicate). DMSO was backfilled to each well up to 301 nL total volume of test compound+DMSO, and a total of 301 nL DMSO was added to a control/no test compound well in triplicate. The cells in cell culture plates were incubated with the compounds at 37° C. and 5% CO2 for 48 hours. Then 50 μl of Cell Titer Glo 2.0 reagent was added to each well of the cell culture plates. The contents were covered from light and mixed on an orbital shaker at room temperature for 10 min. Luminescence was recorded by a Synergy H1 Microplate Reader (Biotek, Winooski, VT). Cells were assessed as a percentage of DMSO only treated control cells. Curves were plotted and IC50 values were calculated using the GraphPad Prism 8 program based on a sigmoidal dose-response equation (4 parameter).

Ba/F3 FGFR3-BAIAP2L1 = biological target: T6, Ba/F3 FGFR3-BAIAP2L1 (Homo sapiens, UniProt P22607); assay: Ba/F3 cell viability assay (CellTiter-Glo 2.0); assay type: cell-based; conditions: Ba/F3 cell data, FGFR3-BAIAP2L1 fusion, 48 hours
T6 construct: BAIAP2L1 (fusion partner, Q9UHR4 if human); host or cells: Ba/F3; the other entry of the earlier key: BAIAP2L1 (Q9UHR4, BAR/IMD domain-containing adapter protein 2-like 1)
T6 sequence (P22607 397-758 limits assumed): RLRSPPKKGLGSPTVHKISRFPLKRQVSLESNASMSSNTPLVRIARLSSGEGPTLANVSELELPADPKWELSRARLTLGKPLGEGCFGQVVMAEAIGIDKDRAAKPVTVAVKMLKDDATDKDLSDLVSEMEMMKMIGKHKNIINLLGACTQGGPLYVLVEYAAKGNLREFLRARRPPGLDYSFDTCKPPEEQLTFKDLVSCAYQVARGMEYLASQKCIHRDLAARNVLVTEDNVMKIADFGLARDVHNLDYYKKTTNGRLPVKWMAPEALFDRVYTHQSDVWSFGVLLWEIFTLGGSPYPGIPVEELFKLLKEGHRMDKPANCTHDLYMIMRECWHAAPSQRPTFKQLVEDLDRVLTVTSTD

FGFR4 = biological target: T7, FGFR4 (Homo sapiens, UniProt P22455); assay: Kinase binding assay (Kd), kinase-tagged T7 phage, affinity beads, qPCR; conditions: in vitro binding assay, 11-point 3-fold dilution series
T7 construct: made in house; host or cells: E. coli (BL21-derived) infected with T7 phage
T7 sequence (P22455 22-802): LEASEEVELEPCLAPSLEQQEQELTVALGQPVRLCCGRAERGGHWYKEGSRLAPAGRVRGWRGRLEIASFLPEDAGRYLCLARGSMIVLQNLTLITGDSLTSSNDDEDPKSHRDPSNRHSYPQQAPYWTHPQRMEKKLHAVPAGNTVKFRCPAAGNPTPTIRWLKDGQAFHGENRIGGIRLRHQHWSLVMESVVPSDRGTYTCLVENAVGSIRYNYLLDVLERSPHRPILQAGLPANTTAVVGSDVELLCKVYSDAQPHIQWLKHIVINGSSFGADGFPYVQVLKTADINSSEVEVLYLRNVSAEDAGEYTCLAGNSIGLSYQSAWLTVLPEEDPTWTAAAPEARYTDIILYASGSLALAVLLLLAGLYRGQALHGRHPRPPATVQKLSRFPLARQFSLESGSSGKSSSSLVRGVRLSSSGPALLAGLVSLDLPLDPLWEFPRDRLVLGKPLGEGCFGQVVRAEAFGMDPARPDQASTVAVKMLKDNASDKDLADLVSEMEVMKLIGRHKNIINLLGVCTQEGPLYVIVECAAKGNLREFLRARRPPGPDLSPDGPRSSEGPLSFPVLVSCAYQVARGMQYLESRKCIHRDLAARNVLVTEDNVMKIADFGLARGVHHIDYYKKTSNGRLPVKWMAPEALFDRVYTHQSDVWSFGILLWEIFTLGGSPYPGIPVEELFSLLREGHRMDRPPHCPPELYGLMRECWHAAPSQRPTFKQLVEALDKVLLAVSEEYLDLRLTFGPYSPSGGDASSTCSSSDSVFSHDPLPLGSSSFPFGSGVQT
Experimental: as §1, §2, §3, §4

FGFR2 = biological target: T8, FGFR2 (Homo sapiens, UniProt P21802); assay: as above; conditions: in vitro binding assay, 11-point 3-fold dilution series
T8 construct: made in house; host or cells: E. coli (BL21-derived) infected with T7 phage
T8 sequence (P21802 22-821): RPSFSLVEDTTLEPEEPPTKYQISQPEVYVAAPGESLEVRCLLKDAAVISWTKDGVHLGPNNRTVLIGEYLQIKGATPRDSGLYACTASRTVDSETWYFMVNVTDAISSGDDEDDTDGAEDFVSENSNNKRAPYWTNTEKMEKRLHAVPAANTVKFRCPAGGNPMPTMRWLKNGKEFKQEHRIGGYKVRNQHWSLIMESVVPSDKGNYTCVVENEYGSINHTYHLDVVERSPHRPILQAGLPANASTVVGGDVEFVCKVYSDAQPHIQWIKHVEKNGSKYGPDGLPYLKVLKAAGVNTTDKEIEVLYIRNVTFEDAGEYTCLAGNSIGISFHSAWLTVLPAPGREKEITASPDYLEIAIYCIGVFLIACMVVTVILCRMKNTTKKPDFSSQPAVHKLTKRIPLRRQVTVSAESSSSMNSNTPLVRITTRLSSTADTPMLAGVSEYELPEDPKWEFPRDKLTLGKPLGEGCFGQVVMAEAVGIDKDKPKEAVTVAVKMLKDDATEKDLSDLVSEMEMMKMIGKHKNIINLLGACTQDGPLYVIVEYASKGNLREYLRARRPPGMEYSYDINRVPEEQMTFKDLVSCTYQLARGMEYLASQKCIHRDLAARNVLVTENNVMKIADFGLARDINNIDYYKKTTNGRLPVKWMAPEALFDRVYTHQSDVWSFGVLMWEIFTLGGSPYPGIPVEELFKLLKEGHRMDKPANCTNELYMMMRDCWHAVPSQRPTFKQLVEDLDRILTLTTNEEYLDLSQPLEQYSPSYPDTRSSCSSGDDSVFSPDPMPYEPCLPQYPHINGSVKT
Experimental: as §1, §2, §3, §4

FGFR3 (V555M) = biological target: T9, FGFR3 (V555M) (Homo sapiens, UniProt P22607, V555M); assay: as above; conditions: in vitro binding assay, 11-point 3-fold dilution series
T9 construct: made in house; host or cells: E. coli (BL21-derived) infected with T7 phage
T9 sequence (P22607 23-806 V555M): as the sequence (P22607 23-806) above, with V533M counted along it
Experimental: as §1, §2, §3, §4

Row | Structure (SMILES) | Kd (FGFR3) | Kd (FGFR1) | Kd (FGFR4) | Kd (FGFR2) | Kd (FGFR3 (V555M)) | Kd (Ba/F3 BCR-FGFR1) | Kd (Ba/F3 BCR-FGFR2) | Kd (Ba/F3 ETV5-FGFR4) | Kd (Ba/F3 FGFR3-BAIAP2L1)
1 | C=CC(=O)N1CC(F)(C(=O)N2CCC(n3nnc(-c4cc(O[C@@H](CO)c5ccccn5)c5c(C#N)cnn5c4)c3C)CC2)C1 (single isomer, unassigned) [Example 19] | 100 to 250 nM | ≥ 1000 nM | ≥ 1000 nM | 250 to 1000 nM | 250 to 1000 nM | – | – | – | –
2 | C=CC(=O)N1CCC2(CC1)CC(n1ncc(-c3cc(O[C@@H](CO)c4ccccn4)c4c(Cl)cnn4c3)c1C)C2 [Example 5, (R)-1-(2-(4-(3-chloro-4-(2-hydroxy-1-(pyridin-2-yl)ethoxy)pyrazolo[1,5-a]pyridin-6-yl)-5-methyl-1H-pyrazol-1-yl)-7-azaspiro[3.5]nonan-7-yl)prop-2-en-1-one] | 250 to 1000 nM | ≥ 1000 nM | – | – | – | ≥ 1000 nM | ≥ 1000 nM | ≥ 1000 nM | 250 to 1000 nM
3 | C=CC(=O)N1CCC2(CC1)CC(n1ncc(-c3cc(O[C@@H](CO)c4ccccn4)c4c(C#N)cnn4c3)c1C)C2 [Example 7, (R)-6-(1-(7-acryloyl-7-azaspiro[3.5]nonan-2-yl)-5-methyl-1H-pyrazol-4-yl)-4-(2-hydroxy-1-(pyridin-2-yl)ethoxy)pyrazolo[1,5-a]pyridine-3-carbonitrile] | 100 to 250 nM | 250 to 1000 nM | 250 to 1000 nM | 100 to 250 nM | 250 to 1000 nM | ≥ 1000 nM | 250 to 1000 nM | 250 to 1000 nM | 100 to 250 nM
4 | C=CC(=O)N1CCC2(CC1)CC(n1ncc(-c3cc(O[C@@H](CO)c4ccc(F)cn4)c4c(C#N)cnn4c3)c1C)C2 [Example 10, (R)-6-(1-(7-acryloyl-7-azaspiro[3.5]nonan-2-yl)-5-methyl-1H-pyrazol-4-yl)-4-(1-(5-fluoropyridin-2-yl)-2-hydroxyethoxy)pyrazolo[1,5-a]pyridine-3-carbonitrile] | 250 to 1000 nM | 250 to 1000 nM | – | 250 to 1000 nM | 250 to 1000 nM | ≥ 1000 nM | ≥ 1000 nM | ≥ 1000 nM | 250 to 1000 nM
5 | C=CC(=O)N1CCC2(CC1)CC(n1ncc(-c3cc(OC(CO)c4ccnn4C)c4c(C#N)cnn4c3)c1C)C2 (centres unmarked) [Example 11, 6-(1-(7-acryloyl-7-azaspiro[3.5]nonan-2-yl)-5-methyl-1H-pyrazol-4-yl)-4-(2-hydroxy-1-(1-methyl-1H-pyrazol-5-yl)ethoxy)pyrazolo[1,5-a]pyridine-3-carbonitrile] | 100 to 250 nM | 250 to 1000 nM | 250 to 1000 nM | 100 to 250 nM | 100 to 250 nM | ≥ 1000 nM | ≥ 1000 nM | ≥ 1000 nM | 250 to 1000 nM
6 | C=CC(=O)N1CC(C(=O)N2CCC(n3nnc(-c4cc(O[C@@H](CO)c5ccccn5)c5c(C#N)cnn5c4)c3C)CC2)C1 [Example 17, (R)-6-(1-(1-(1-acryloylazetidine-3-carbonyl)piperidin-4-yl)-5-methyl-1H-1,2,3-triazol-4-yl)-4-(2-hydroxy-1-(pyridin-2-yl)ethoxy)pyrazolo[1,5-a]pyridine-3-carbonitrile] | 100 to 250 nM | ≥ 1000 nM | ≥ 1000 nM | 250 to 1000 nM | 250 to 1000 nM | – | – | – | –
7 | C=CC(=O)N1CCC2(CC1)CC(n1cc(-c3cc(O[C@@H](CO)c4ccc(F)cn4)c4c(C#N)cnn4c3)cn1)C2 [Example 25, (R)-6-(1-(7-acryloyl-7-azaspiro[3.5]nonan-2-yl)-1H-pyrazol-4-yl)-4-(1-(5-fluoropyridin-2-yl)-2-hydroxyethoxy)pyrazolo[1,5-a]pyridine-3-carbonitrile] | 100 to 250 nM | 100 to 250 nM | 250 to 1000 nM | 100 to 250 nM | 250 to 1000 nM | – | – | – | –
8 | CCC(=O)N1CCC2(CC1)CC(n1cc(-c3cc(O[C@@H](CO)c4ccc(F)cn4)c4c(C#N)cnn4c3)cn1)C2 [Example 26, (R)-4-(1-(5-fluoropyridin-2-yl)-2-hydroxyethoxy)-6-(1-(7-propionyl-7-azaspiro[3.5]nonan-2-yl)-1H-pyrazol-4-yl)pyrazolo[1,5-a]pyridine-3-carbonitrile] | 100 to 250 nM | 100 to 250 nM | 250 to 1000 nM | 100 to 250 nM | 250 to 1000 nM | – | – | – | –

Continued, in another order:

Row | Kd (FGFR3) | Kd (FGFR1) | Kd (FGFR4) | Kd (FGFR2) | Kd (FGFR3 (V555M)) | Structure (SMILES) | Kd (Ba/F3 BCR-FGFR1) | Kd (Ba/F3 BCR-FGFR2) | Kd (Ba/F3 ETV5-FGFR4) | Kd (Ba/F3 FGFR3-BAIAP2L1)
9 | 0.1 to 100 nM | 100 to 250 nM | – | – | – | C=CC(=O)N1CCC2(CC1)CC(n1ncc(-c3cc(OC(CO)c4ccccn4)c4c(Cl)cnn4c3)c1C)C2 (single isomer, unassigned) [Example 6] | 250 to 1000 nM | 250 to 1000 nM | 250 to 1000 nM | 0.1 to 100 nM
10 | 0.1 to 100 nM | 0.1 to 100 nM | – | – | – | C=CC(=O)N1CCC2(CC1)CC(n1nnc(-c3cc(O[C@H](C)c4ccccn4)c4c(Cl)cnn4c3)c1C)C2 [Example 4, (R)-1-(2-(4-(3-chloro-4-(1-(pyridin-2-yl)ethoxy)-pyrazolo[1,5-a]pyridin-6-yl)-5-methyl-1H-1,2,3-triazol-1-yl)-7-azaspiro[3.5]nonan-7-yl)prop-2-en-1-one] | 100 to 250 nM | 100 to 250 nM | 250 to 1000 nM | 0.1 to 100 nM
11 | 0.1 to 100 nM | 100 to 250 nM | 0.1 to 100 nM | 0.1 to 100 nM | 0.1 to 100 nM | CCC(=O)N1CC(C(=O)N2CCC(n3nnc(-c4cc(OC(CO)c5ccccn5)c5c(C#N)cnn5c4)c3C)CC2)C1 (centres unmarked) [Example 16, 4-(2-hydroxy-1-(pyridin-2-yl)ethoxy)-6-(5-methyl-1-(1-(1-propionylazetidine-3-carbonyl)piperidin-4-yl)-1H-1,2,3-triazol-4-yl)pyrazolo[1,5-a]pyridine-3-carbonitrile] | – | – | – | –
12 | 0.1 to 100 nM | 0.1 to 100 nM | 0.1 to 100 nM | 0.1 to 100 nM | 0.1 to 100 nM | C#CC(=O)N1CC(OC)(C(=O)N2CCC(n3nnc(-c4cc(OC(CO)c5ccccn5)c5c(C#N)cnn5c4)c3C)CC2)C1 (centres unmarked) [Example 24, 4-(2-hydroxy-1-(pyridin-2-yl)ethoxy)-6-(1-(1-(3-methoxy-1-propioloylazetidine-3-carbonyl)piperidin-4-yl)-5-methyl-1H-1,2,3-triazol-4-yl)pyrazolo[1,5-a]pyridine-3-carbonitrile] | – | – | – | –
